Laboratory results taken from US20230149401A1 (priority 2020, published 2023).
Like-named read-outs stand apart in the source and are kept apart here. Residues, ends and D or L forms follow the SMILES beside them.

Assays:
[1] = tested on: endogenous furin-like enzymes; assay type: cell-based; settings: HeLa-ACE2 cells
[2] = tested on: SARS-CoV-2; assay: microbe, parasite or virus in culture; assay type: cell-based
[3] = tested on: HIV particles pseudotyped with SARS-CoV-2 S; assay type: cell-based
[4] = target: TMPRSS2 (Homo sapiens, UniProt O15393); assay type: cell-based; parameters: expressed in transfected cells; host or cells: HeLa; settings: HeLa cells
Sequence of TMPRSS2 (O15393 whole entry): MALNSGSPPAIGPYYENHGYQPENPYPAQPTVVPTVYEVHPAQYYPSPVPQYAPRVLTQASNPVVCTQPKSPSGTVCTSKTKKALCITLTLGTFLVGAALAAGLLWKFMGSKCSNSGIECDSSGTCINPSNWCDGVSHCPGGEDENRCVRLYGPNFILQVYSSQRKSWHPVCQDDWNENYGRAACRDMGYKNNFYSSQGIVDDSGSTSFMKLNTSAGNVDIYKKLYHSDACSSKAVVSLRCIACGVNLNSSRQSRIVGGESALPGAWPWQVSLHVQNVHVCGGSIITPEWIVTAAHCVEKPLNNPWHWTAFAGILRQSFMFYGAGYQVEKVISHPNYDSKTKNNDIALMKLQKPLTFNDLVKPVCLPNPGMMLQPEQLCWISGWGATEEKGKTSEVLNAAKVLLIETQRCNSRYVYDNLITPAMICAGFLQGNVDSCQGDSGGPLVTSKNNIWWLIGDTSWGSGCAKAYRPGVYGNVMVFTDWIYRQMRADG

[5] = tested on: furin-like convertases; assay type: cell-based; settings: 1 μM; 293T17 producing cells and pseudovirions
[6] = target: T1, PACE4 (PCSK6) (Homo sapiens, UniProt P29122); assay: Biochemical PC-inhibition assay, substrate FAM-[…]-TAMRA
T1 construct: PACE4 (PCSK6; 150-693-Tev-Flag-6His); Tev site (C); Flag (C); 6His (C); made in house; host or cells: BacMam transduced CHO cells
T1 sequence (P29122 150-693): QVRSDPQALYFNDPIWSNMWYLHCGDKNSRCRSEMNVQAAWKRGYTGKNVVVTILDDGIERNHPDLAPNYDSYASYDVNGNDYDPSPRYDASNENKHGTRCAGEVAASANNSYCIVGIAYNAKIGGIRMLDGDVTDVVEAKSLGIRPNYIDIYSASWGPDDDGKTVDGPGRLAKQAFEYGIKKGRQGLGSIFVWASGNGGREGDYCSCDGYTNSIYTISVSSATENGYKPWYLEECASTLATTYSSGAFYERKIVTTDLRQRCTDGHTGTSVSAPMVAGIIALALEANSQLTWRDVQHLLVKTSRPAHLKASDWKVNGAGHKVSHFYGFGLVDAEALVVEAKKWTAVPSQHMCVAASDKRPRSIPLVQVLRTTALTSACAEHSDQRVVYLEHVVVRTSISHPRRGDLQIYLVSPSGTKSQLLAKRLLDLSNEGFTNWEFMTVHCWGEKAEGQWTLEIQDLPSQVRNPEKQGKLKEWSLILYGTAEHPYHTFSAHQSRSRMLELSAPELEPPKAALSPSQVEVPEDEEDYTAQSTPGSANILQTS
Experimental: (§1) Biochemical assay: The proprotein convertases furin (108-574-Tev-Flag-6His), PC5A (PCSK5; […]-Tev-Flag-6His), PACE4 (PCSK6; 150-693-Tev-Flag-6His), and PC7 (PCSK7; 142-634-Tev-Flag-6His) enzymes were purified from BacMam transduced CHO cells. […] 0.05 μl of each concentration was transferred to the corresponding well of an assay plate, and then 5 μl of enzyme (furin, PCSK5, PCSK6, and PCSK7) in assay buffer (100 mM HEPES pH 7.5, 1 mM CaCl2) and 0.005% Triton X-100) was added using a Multidrop Combi (Thermo) to the compound plates to give a final protein concentration of 0.02, 0.5, 2.5, and 1.0 nM respectively. The plates were mixed by inversion, and following a 30 min preincubation of enzyme with compound at room temperature (˜22° C.), the substrate FAM-[…] -TAMRA (AnaSpec #808143, 5 μl of a 1, 0.25, 0.20, and 0.5 μM solution in assay buffer for furin, PCSK5, PCSK6, and PCSK7 respectively) was added using a Multidrop Combi to the entire assay plate. The plates were centrifuged at 500×g for 1 minute and incubated at room temperature for two hours. Enzyme inhibition was then quantified using an Envision instrument (PerkinElmer). Data were normalized to maximal inhibition determined by 1 μM Decanoyl-Arg-Val-Lys-Arg-Chloromethylketone (Calbiochem #344930). Golgi imaging assay: This assay uses an image-based platform to evaluate the intracellular activity of furin inhibitors. Reactions were performed in black 384-well, tissue culture-treated, clear bottom plates (Greiner). Compounds under analysis were dissolved in DMSO (1.0 mM) and serially diluted 1 to 3 with DMSO through eleven dilutions. This creates a final compound concentration range from 0.00017 to 10 μM, and 0.1 μL of each concentration was transferred to the corresponding well of the assay plate.

[7] = target: T2, PC5A (PCSK5) (Homo sapiens, UniProt Q92824); assay: as above
T2 construct: fused on or other part: C-terminal Tev site, Flag tag and 6His tag
T2 sequence (Q92824 115-601): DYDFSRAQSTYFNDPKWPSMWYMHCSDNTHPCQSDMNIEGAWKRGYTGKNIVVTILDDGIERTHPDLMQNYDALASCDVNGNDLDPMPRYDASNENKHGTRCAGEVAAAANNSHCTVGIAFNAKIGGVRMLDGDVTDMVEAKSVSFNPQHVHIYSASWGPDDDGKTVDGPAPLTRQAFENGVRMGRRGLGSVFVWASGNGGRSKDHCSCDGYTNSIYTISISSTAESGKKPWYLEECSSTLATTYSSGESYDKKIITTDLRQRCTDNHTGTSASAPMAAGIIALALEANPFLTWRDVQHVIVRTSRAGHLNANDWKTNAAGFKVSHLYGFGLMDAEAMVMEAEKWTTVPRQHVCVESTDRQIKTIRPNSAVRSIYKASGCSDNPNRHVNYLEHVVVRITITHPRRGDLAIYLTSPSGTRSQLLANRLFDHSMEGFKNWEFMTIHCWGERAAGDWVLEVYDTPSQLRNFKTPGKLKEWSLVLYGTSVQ
Experimental: as §1

[8] = target: T3, PC7 (PCSK7) (Homo sapiens, UniProt Q16549); assay: as above
T3 construct: PC7 (PCSK7; 142-634-Tev-Flag-6His); Tev site (C); Flag (C); 6His (C); made in house; host or cells: BacMam transduced CHO cells
T3 sequence (Q16549 142-634): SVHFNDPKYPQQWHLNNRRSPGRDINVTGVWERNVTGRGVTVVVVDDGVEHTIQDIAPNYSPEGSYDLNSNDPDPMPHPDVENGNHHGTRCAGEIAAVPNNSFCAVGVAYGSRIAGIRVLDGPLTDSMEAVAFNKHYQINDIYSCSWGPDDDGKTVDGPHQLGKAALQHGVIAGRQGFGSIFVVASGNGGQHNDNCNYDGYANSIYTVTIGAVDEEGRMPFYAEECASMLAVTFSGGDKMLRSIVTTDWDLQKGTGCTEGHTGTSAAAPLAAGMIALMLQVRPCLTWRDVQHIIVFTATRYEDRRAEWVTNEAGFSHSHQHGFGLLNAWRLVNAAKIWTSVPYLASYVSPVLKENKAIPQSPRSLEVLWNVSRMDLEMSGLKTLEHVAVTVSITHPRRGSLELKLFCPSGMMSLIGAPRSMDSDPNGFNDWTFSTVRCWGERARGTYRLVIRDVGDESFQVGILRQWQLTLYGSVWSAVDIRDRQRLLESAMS
Experimental: as §1

[9] = tested on: SARS-CoV-2; assay type: cell-based
[10] = tested on: SARS-CoV-2 Spike ACE2-dependent cell-to-cell fusion; assay: microbe, parasite or virus in culture; assay type: cell-based; settings: Severe acute respiratory syndrome coronavirus 2; 300 nM
[11] = tested on: HeLa cells co-expressing the S-protein with ACE2; assay: Immunocytochemistry of HeLa cells co-expressing S-protein and ACE2 (syncytia, localization); assay type: cell-based; settings: 1 μM
Experimental: Immunocytochemical analyses of HeLa cells co-expressing the S-protein or μS1/S2 with ACE2 in the absence or presence of 1 μM Compound 192 was also investigated under cell-permeabilization (P; V5 and ACE2 antibodies) and non-permeabilization (NP; S2 and ACE2 antibodies) conditions (FIGS. 14, 15). In the absence of Compound 192, the S-protein and ACE2 co-localized abundantly at the cell surface (FIG. 14-a). HeLa cells expressing both S-protein and ACE2 formed many syncytia, associated with reduced cell surface expression of the S-protein, and an even greater reduction of ACE2 (FIG. 14-b).
Cell culture and transfection were performed on glass coverslips. Cells were washed twice with PBS and fixed with fresh 4% paraformaldehyde for 10 min at room temperature. Following washes, cells were either non-permeabilized or permeabilized with 0.2% Triton X-100 in PBS containing 2% BSA for 5 min, washed, and then blocking was performed with PBS containing 2% BSA for 1 h. Cells were incubated with primary antibodies overnight at 4° C. using an antibody against V5 (mouse monoclonal R960-25; 1:1000; Invitrogen), Spike (mouse monoclonal GTX632604; 1:500; GeneTex) and ACE2 (goat polyclonal AF933; 1:500; RnDsystems). Following wash, corresponding species-specific Alexa-Fluor (488 or 555)-tagged antibodies (Molecular Probes) were incubated for 1 h at room temperature. […]

[12] = target: T4, furin (Homo sapiens, UniProt P09958); assay: biochemical
Target sequence in this assay (P09958 108-794): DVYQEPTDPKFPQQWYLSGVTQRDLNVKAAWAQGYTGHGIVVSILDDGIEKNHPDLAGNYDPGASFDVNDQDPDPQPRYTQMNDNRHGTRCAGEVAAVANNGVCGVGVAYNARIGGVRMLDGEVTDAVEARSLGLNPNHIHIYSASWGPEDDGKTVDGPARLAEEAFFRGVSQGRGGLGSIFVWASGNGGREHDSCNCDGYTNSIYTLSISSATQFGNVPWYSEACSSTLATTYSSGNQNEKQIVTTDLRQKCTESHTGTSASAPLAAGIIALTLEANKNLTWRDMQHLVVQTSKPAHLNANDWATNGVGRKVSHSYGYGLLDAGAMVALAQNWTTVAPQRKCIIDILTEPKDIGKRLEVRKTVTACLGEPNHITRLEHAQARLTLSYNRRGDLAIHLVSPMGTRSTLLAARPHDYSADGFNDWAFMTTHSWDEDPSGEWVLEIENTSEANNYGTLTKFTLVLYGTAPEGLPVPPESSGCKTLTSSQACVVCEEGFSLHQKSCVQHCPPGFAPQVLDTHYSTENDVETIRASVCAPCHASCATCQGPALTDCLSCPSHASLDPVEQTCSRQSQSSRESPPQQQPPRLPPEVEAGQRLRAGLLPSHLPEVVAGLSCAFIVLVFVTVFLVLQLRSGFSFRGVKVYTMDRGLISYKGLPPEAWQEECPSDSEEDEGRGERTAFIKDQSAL
Experimental: Furin and TRMPSS2 fluorogenic assays: Recombinant furin was purchased from BioLegend (#719406), TRMPSS2 from Cusabio and the DABCYLGlu-EDANS labelled peptides encompassing the different cleavage sites (Supplementary Table 1) were purchased from Genscript. Reactions were performed at room temperature in black 384-well polystyrene low volume plates (CELLSTAR-Greiner Bio-One #784476) at a final volume of 15 μL. […] Cleavage of the synthetic peptides was quantitated by determining the increase of EDANS (493 nM) fluorescence following release of the DABCYL quencher, which is excited at 335 nM using a Safire 2 Tecan fluorimeter. The fluorescence was followed during 90 min, and the enzymatic activity was deduced by measurement of the increase of fluorescence during the linear phase of the reaction. Each reaction was performed in triplicate and the standard deviation was calculated using Excel-ecart type function

[13] = tested on: endogenous furin-like enzymes; assay type: cell-based, Chinese hamster; settings: BHK21 cells; Compound 192/219 at 0.3, 1 or 10 μM, RVKR at 50 μM; 24 h
[14] = target: T4, furin; assay: Biochemical PC-inhibition assay, substrate FAM-[…]-TAMRA; parameters: furin (108-574-Tev-Flag-6His); Tev site (C); Flag (C); 6His (C); made in house; host or cells: BacMam transduced CHO cells
Target sequence in this assay (P09958 108-574): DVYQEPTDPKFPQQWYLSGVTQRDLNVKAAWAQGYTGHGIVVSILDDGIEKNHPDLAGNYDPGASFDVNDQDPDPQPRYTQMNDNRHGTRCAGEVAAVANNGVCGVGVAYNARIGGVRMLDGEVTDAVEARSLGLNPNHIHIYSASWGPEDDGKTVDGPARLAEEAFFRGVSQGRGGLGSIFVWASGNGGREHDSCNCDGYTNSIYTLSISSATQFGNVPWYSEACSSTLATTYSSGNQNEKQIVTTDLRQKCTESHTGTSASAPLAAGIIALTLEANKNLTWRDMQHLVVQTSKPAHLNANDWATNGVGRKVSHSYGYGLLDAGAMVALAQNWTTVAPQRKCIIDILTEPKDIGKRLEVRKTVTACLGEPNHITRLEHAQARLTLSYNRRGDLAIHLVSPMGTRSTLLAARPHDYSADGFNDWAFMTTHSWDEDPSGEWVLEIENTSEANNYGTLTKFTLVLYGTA
Experimental: Biochemical assay: The proprotein convertases furin (108-574-Tev-Flag-6His), PC5A (PCSK5; 115-63-Tev-Flag-6His), PACE4 (PCSK6; 150-693-Tev-Flag-6His), and PC7 (PCSK7; 142-634-Tev-Flag-6His) enzymes were purified from BacMam transduced CHO cells. Reactions were performed in black 384-well polystyrene low volume plates (Greiner) at a final volume of 10 μL. […] The plates were centrifuged at 500×g for 1 minute and incubated at room temperature for two hours. Enzyme inhibition was then quantified using an Envision instrument (PerkinElmer). Data were normalized to maximal inhibition determined by 1 μM Decanoyl-Arg-Val-Lys-Arg-Chloromethylketone (Calbiochem #344930).

[15] = tested on: endogenous furin-like enzymes; assay type: cell-based, human; settings: A549 cells; Compound 192/219 at 0.3, 1 or 10 μM, RVKR at 50 μM; 24 h
[16] = tested on: endogenous furin-like enzymes; assay type: cell-based, African green monkey; settings: VeroE6 cells; Compound 192/219 at 0.3, 1 or 10 μM, RVKR at 50 μM; 24 h
[17] = target: T5, endogenous furin (Homo sapiens, UniProt P09958); assay: Cell-based Golgi imaging assay of U2OS cells (BMP10-mimic cleavage)
T5 construct: the endogenous protease cleaves GFP from its N-acetylgalactosaminyltransferase-2 Golgi tether; endogenous in cells; host or cells: U2OS
T5 sequence (P09958 108-794): as the sequence (P09958 108-794) above
Experimental: Biochemical assay: The proprotein convertases furin (108-574-Tev-Flag-6His), PC5A (PCSK5; […]-Tev-Flag-6His), PACE4 (PCSK6; 150-693-Tev-Flag-6His), and PC7 (PCSK7; 142-634-Tev-Flag-6His) enzymes were purified from BacMam transduced CHO cells. […] 0.05 μl of each concentration was transferred to the corresponding well of an assay plate, and then 5 μl of enzyme (furin, PCSK5, PCSK6, and PCSK7) in assay buffer (100 mM HEPES pH 7.5, 1 mM CaCl2) and 0.005% Triton X-100) was added using a Multidrop Combi (Thermo) to the compound plates to give a final protein concentration of 0.02, 0.5, 2.5, and 1.0 nM respectively. […] Enzyme inhibition was then quantified using an Envision instrument (PerkinElmer). Data were normalized to maximal inhibition determined by 1 μM Decanoyl-Arg-Val-Lys-Arg-Chloromethylketone (Calbiochem #344930). […]
Cellular assay: Analyses were initiated by the addition of U2OS cells simultaneously transduced with a BacMam-delivered construct containing a Golgi-targeting sequence followed by a 12-amino acid furin/PCSK cleavage site from Bone Morphogenic Protein 10 (BMP10) and then GFP at the C terminus. […] In the absence of a furin/PCSK inhibitor, the endogenous protease cleaves GFP from its N-acetylgalactosaminyltransferase-2 Golgi tether, releasing GFP into the Golgi lumen where fluorescence is diluted below the threshold of assay sensitivity. […]

## CN1CCN(c2ncc(Oc3cc(CN4CCC(CC(=O)O)CC4)cc(-c4cc(Cl)cc(Cl)c4)n3)cn2)CC1 [Compound 93, 2-(1-((2-(3,5-dichloro-phenyl)-6-((2-(4-methyl-piperazin-1-yl)pyrimidin-5-yl)oxy)pyridin-4-yl)methyl)piperidin-4-yl)acetic acid]
[1]
  S1/S2 and S2′ processing by endogenous furin-like enzymes: blocked
[2]
  Concentration from which inhibitory effect could be observed: 0.25 µM
  Levels of viral spike and nucleocapsid proteins and progeny virus levels: similarly decreased
  Viral titers at 12, 24 and 48h post-infection: significantly decreased
[2]; 1 μM
  Reduction of titer of progeny viruses: more than 30 fold
[2]; Severe acute respiratory syndrome coronavirus 2, Calu-3, 24 h, read-out: IC50 (virus titer)
  IC50: 200 nM
[3]
  Viral entry in Calu-3 of pseudovirions packaged in presence of inhibitor: prevents viral entry
[4]
  Generation of S2a and S2b by TMPRSS2: none of the compounds affected
[5]
  Processing of WT-S: clearly impaired
[6]
  IC50: ~7 nM
[7]
  IC50: ~7 nM
[8]
  IC50: ~7 nM
[9]
  Virus production in infected Vero E6 cells: modestly reduce virus production
[9]; 1 μM
  Decrease in virus production: ~5.7 fold
[10]
  inhibition at 0.3 µM: > 60%

## CC(=O)NCC1CCN(Cc2cc(Oc3cnc(N4CCN(CCC(C)C(=O)O)CC4)nc3)nc(-c3cc(Cl)cc(Cl)c3)c2)CC1 (stereo not drawn) [Compound 192, 4-(4-(5-((4-((4-(acetamidomethyl)piperidin-1-yl)methyl)-6-(3,5-dichloro-phenyl)pyridin-2-yl)oxy)pyrimidin-2-yl)piperazin-1-yl)-2-methylbutanoic acid]
[1]
  S1/S2 and S2′ processing by endogenous furin-like enzymes: blocked
[1]; 300 nM
  Inhibition of S1/S2 and S2′ processing: almost complete inhibition
[2]
  Antiviral effects and selectivity index relative to Compound 93: comparable
  SARS-CoV-2 infection in Calu-3 cells (virus titers): strongly reduce
  Viral replication, inhibitors individually: meaningfully reduce viral replication
  Viral titers at 12, 24 and 48h post-infection: significantly decreased
[11]
  Phenotype of S-expressing HeLa cells (syncytia, S and ACE2 localization): phenocopy those expressing μS1/S2
[12]
  IC50: 4 ± 0.7 nM
[3]
  Viral entry in Calu-3 of pseudovirions packaged in presence of inhibitor: block viral entry
[13]
  Inhibition of processing of pro-(S) protein to active (S)-protein: Inhibition was observed
[4]
  Generation of S2a and S2b by TMPRSS2: none of the compounds affected
[14]
  IC50: ~7 nM
[15]
  Inhibition of processing of pro-(S) protein to active (S)-protein: less inhibition
[6]
  IC50: ~7 nM
[7]
  IC50: ~7 nM
[8]
  IC50: ~7 nM
[9]
  Virus production in infected Vero E6 cells: modestly reduce virus production
[16]
  Inhibition of processing of pro-(S) protein to active (S)-protein: somewhat
[10]
  inhibition at 0.3 µM: > 60%

## CC(=O)NCC1CCN(Cc2cc(Oc3ccc(N4CCN(CCC(=O)O)CC4)nc3)nc(-c3cc(Cl)cc(Cl)c3)c2)CC1 [Compound 219, 3-(4-(5-((4-((4-(acetamidomethyl)piperidin-1-yl)methyl)-6-(3,5-dichlorophenyl)pyridin-2-yl)oxy)pyridin-2-yl)piperazin-1-yl)propanoicacid]
[1]
  S1/S2 and S2′ processing by endogenous furin-like enzymes: blocked
[2]
  Antiviral effects and selectivity index relative to Compound 93: comparable
  SARS-CoV-2 infection in Calu-3 cells (virus titers): strongly reduce
  Viral titers at 12, 24 and 48h post-infection: significantly decreased
[3]
  Viral entry in Calu-3 of pseudovirions packaged in presence of inhibitor: block viral entry
[13]
  Inhibition of processing of pro-(S) protein to active (S)-protein: Inhibition was observed
[4]
  Generation of S2a and S2b by TMPRSS2: none of the compounds affected
[14]
  IC50: ~7 nM
[15]
  Inhibition of processing of pro-(S) protein to active (S)-protein: less inhibition
[6]
  IC50: ~7 nM
[7]
  IC50: ~7 nM
[8]
  IC50: ~7 nM
[9]
  Virus production in infected Vero E6 cells: modestly reduce virus production
[16]
  Inhibition of processing of pro-(S) protein to active (S)-protein: somewhat
[10]
  inhibition at 0.3 µM: > 60%

## CCCCCCCCCC(=O)N[C@@H](CCCNC(=N)N)C(=O)N[C@H](C(=O)N[C@@H](CCCCN)C(=O)N[C@@H](CCCNC(=N)N)C(=O)CCl)C(C)C [RVKR-cmk, Decanoyl-Arg-Val-Lys-Arg-CMK, reference compound] (HELM PEPTIDE1{[CCCCCCCCCC(=O)[*:2]].R.V.K.R.[ClC[*:1]]}$$$$V2.0)
[17]
  IC50: 5 nM
[14]
  IC50: ~9 nM
[6]
  IC50: ~9 nM
[7]
  IC50: ~9 nM
[8]
  IC50: ~9 nM
